Experimental data: patent US8722733B2 (XenoPort, Inc., priority 2008, dated 2014)

How the values were obtained:
[1] = Interconversion of the anhydrous and hydrated crystalline forms (XRPD); format: physicochemical
Description: X-ray powder diffraction (XRPD) analysis was performed using a PANalytical X'Pert Pro X-ray diffractometer. The X-ray source was Cu-kα1 with output voltage of 45 kV and current of 40 mA. The instrument employed para-focusing Bragg-Brentano geometry with incident divergence and scattering slits set at 1/16° and ⅛°, respectively. 0.04-mm radius soller slits were used for both the incident and diffracted beams to remove axial divergence. Powder samples (9-12 mg) were gently pressed onto a single crystal silicon sample holder to form a smooth surface, and samples were spun at 8 sec/revolution throughout the data acquisition process. The samples were scanned from 2° to 40° (2θ) with a step size of 0.017° (2θ°) and a scan speed of 0.067°/sec. Data acquisition was controlled and analyzed with X'Pert Data Collector Software (version 2.2d) and X'Pert Data Viewer (version 1.2c), respectively.
The anhydrous and hydrated crystalline forms of (2R)-2-phenylcarbonyloxypropyl (2S)-2-amino-3-(3,4-dihydroxyphenyl)propanoate mesylate interconvert depending on the water content of the environment.

[2] = Water sorption/desorption (dynamic vapor sorption); format: physicochemical; conditions: 25° C., humidity cycle 5% RH to 95% RH at 10% RH intervals
Description: The hygroscopicity of (2R)-2-phenylcarbonyloxypropyl (2S)-2-amino-3-(3,4-dihydroxyphenyl)propanoate mesylate, hydrate was evaluated during one vapor sorption-desorption cycle using a VTI SGA-100 dynamic vapor sorption analyzer. (2R)-2-Phenylcarbonyloxypropyl (2S)-2-amino-3-(3,4-dihydroxyphenyl)propanoate mesylate, hydrate was first dried at 25° C. for 180 min under a nitrogen atmosphere. The material was considered equilibrated when the weight change during 2 min was less than 0.01%. To evaluate the vapor sorption-desorption at 25° C., the dried (2R)-2-phenylcarbonyloxypropyl (2S)-2-amino-3-(3,4-dihydroxyphenyl)propanoate mesylate, hydrate was exposed to a humidity cycle ramped (and deramped) from 5% RH to 95% RH at 10% RH intervals. At each humidity interval, the material was equilibrated as determined by a less than 0.01% weight change during 5 min.

Row | Structure (SMILES) | Time for conversion to the hydrate in the presence of water vapor ([1]; about 25° C., humidity of at least about 60% RH) [h] | Crystal form after heating and then room temperature and humidity ([1]; after heating at 70° C., left at room temperature and humidity for 1 day) | Crystal form after heating ([1]; heated from 25° C. to 70° C. at 2° C./min, held at 70° C. for 15 min) | Crystal form after vacuum drying and then room temperature and humidity ([1]; vacuum dried overnight, then 25° C. and 40-60% RH for one day) | Hygroscopicity: vapor sorption-desorption [2]
1 | CS(=O)(=O)O.C[C@H](COC(=O)[C@@H](N)Cc1ccc(O)c(O)c1)OC(=O)c1ccccc1 [compound 1, (2R)-2-phenylcarbonyloxypropyl (2S)-2-amino-3-(3,4-dihydroxyphenyl)propanoate mesylate] | ≤ 24 | – | – | – | –
2 | CS(=O)(=O)O.C[C@H](COC(=O)[C@@H](N)Cc1ccc(O)c(O)c1)OC(=O)c1ccccc1.O [(2R)-2-phenylcarbonyloxypropyl (2S)-2-amino-3-(3,4-dihydroxyphenyl)propanoate mesylate, hydrate] | – | reverts to crystalline (2R)-2-phenylcarbonyloxypropyl (2S)-2-amino-3-(3,4-dihydroxyphenyl)propanoate mesylate, hydrate | converted to a transient/metastable crystalline form | a mixture of crystalline anhydrous and hydrate forms | humidity-dependent reversible sorption and desorption of water vapor
